Starred links: 1 amine or outer side, 2 acyl side, 3 side chain; linkers in the order of their positions; H or OH if unused. Positions of bridges follow the written chain, without caps; N, C: chain ends. Non-standard residues stand in square brackets, D forms with d. Residues, ends and D or L forms follow the SMILES beside them. *: point of attachment. hPhe(3-Cl-4-CF3) = N[C@@H](CCc1ccc(C(F)(F)F)c(Cl)c1)C(=O)O; hPhe(3-F,4-CF3) = N[C@@H](CCc1ccc(C(F)(F)F)c(F)c1)C(=O)O; hPhe(4-CF3) = N[C@@H](CCc1ccc(C(F)(F)F)cc1)C(=O)O; NEtPhe(4-Me) = CCN[C@@H](Cc1ccc(C)cc1)C(=O)O; NMePhe(4-Cl) = CN[C@@H](Cc1ccc(Cl)cc1)C(=O)O; NMePhe(4-F) = CN[C@@H](Cc1ccc(F)cc1)C(=O)O; NMedβ3hAla = C[C@H](CC(=O)[*:2])N(C)[*:1]; Oic = O=C(O)[C@@H]1C[C@@H]2CCCC[C@@H]2N1; NMeGly(cPent) = CN[C@H](C(=O)O)C1CCCC1; NMeCha = CN[C@@H](CC1CCCCC1)C(=O)O; Hyp = O=C(O)[C@@H]1C[C@@H](O)CN1; NMeChg = CN[C@H](C(=O)O)C1CCCCC1; NMeF = CN[C@@H](Cc1ccccc1)C(=O)O; Cha = N[C@@H](CC1CCCCC1)C(=O)O; Gly(cPr) = N[C@H](C(=O)O)C1CC1; NMeD = CN[C@@H](CC(=O)O)C(=O)O; NMeL = CN[C@@H](CC(C)C)C(=O)O; NMeV = CN[C@H](C(=O)O)C(C)C; d(β3hA) = C[C@@H](N)CC(=O)O; NMeS = CN[C@@H](CO)C(=O)O; NMeA = CN[C@@H](C)C(=O)O; Piperidide = C1CCN(*)CC1; Pyrrolidide = C1CCN(*)C1; Ac5c = NC1(C(=O)O)CCCC1; Aze = O=C(O)[C@@H]1CCN1; Aib = CC(C)(N)C(=O)O; X47 = Fc1cncc(C*)c1; βAla = NCCC(=O)O; Sar = CNCC(=O)O

The target in this test is T1, Kras and SOS1 (biotin-tagged human Kras loaded with GDP, His-tagged human SOS1) (Homo sapiens, UniProt P01116, G12D).
T1 construct: made in house; host or cells: E. coli (stated for Kras only)
T1 sequence (P01116 1-188 isoform P01116-2 G12D): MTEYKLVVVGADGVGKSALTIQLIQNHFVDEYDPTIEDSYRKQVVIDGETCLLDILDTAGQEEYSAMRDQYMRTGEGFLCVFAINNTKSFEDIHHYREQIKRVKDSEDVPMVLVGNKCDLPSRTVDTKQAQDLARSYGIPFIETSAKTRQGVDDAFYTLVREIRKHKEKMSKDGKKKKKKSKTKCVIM
Nature of the test: Protein-protein interaction inhibition between Kras and SOS1 (KrasGl2D-SOS PPI) using AlphaScreen. Format: binding. The settings on record: AlphaScreen; biotin-tagged human Kras loaded with GDP, His-tagged human SOS1; read-out: KRAS G12D-SOS PPI IC50. In a few lines: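 AlphaScreen format: Ni donor beads capture His-SOS1, streptavidin acceptor beads capture biotinylated Kras (E. coli-expressed, GDP-loaded post-purification). Excite 680 nm, read 520-620 nm.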
A general note: Bead proximity is the source of the signal in Alpha formats.
Broadly, the IC50 is the point on the concentration scale where inhibition reaches its midpoint. Take `CC[C@H](C)[C@@H]1NC(=O)[C@H](C)N(C)C(=O)C[C@@H](C(=O)N2CCCC2)NC(=O)[C@H](CC(C)C)N(C)C(=O)[C@H](COCc2cncc(F)c2)N(C)C(=O)[C@H](CC(C)C)NC(=O)[C@H](CCc2ccc(C(F)(F)F)cc2)NC(=O)CN(C)C(=O)[C@H](Cc2ccc(Cl)cc2)N(C)C(=O)CN(C)C(=O)CN(C)C1=O` [Compound 517] ([NMeA]I[Sar][Sar][NMePhe(4-Cl)][Sar][hPhe(4-CF3)]L[NMeS](X47)[NMeL]D-Pyrrolidide; lactam N-11): the concentration for half-maximal inhibition (IC50) is 28 nM. Consider `CC[C@H](C)[C@@H]1NC(=O)[C@H](C)N(C)C(=O)C[C@@H](C)NC(=O)[C@H](CC(C)C)N(C)C(=O)C(C)(C)NC(=O)[C@@H]2C[C@@H]3CCCC[C@@H]3N2C(=O)[C@H](CCc2ccc(C(F)(F)F)cc2)NC(=O)CN(C)C(=O)[C@H](Cc2ccc(Cl)cc2)N(C)C(=O)CN(C)C(=O)CN(C)C1=O` [Compound 521] (cyclo([Aib][NMeL][d(β3hA)][NMeA]I[Sar][Sar][NMePhe(4-Cl)][Sar][hPhe(4-CF3)][Oic])), for which the half-maximal inhibitory concentration (IC50) was found to be 71 nM.

With `CC[C@H](C)[C@@H]1NC(=O)[C@H](CC(C)C)N(C)C(=O)C[C@@H](C(=O)N2CCCCC2)N(C)C(=O)[C@H](C(C)C)N(C)C(=O)C(C)(C)NC(=O)[C@@H]2CCCN2C(=O)[C@H](CCc2ccc(C(F)(F)F)c(F)c2)NC(=O)CN(C)C(=O)[C@H](CC2CCCCC2)N(C)C(=O)CN(C)C(=O)CN(C)C1=O` [Compound 522] ([NMeL]I[Sar][Sar][NMeCha][Sar][hPhe(3-F,4-CF3)]P[Aib][NMeV][NMeD]-Piperidide; lactam N-11), the IC50 was 5.3 nM. The same measure for `CCO[C@@H]1C[C@H]2C(=O)NC3(CCCC3)C(=O)N(C)[C@@H](C3CCCC3)C(=O)N(C)[C@H](C)CC(=O)N(C)[C@@H](CC(C)C)C(=O)N[C@@H]([C@@H](C)CC)C(=O)N[C@@H](C)C(=O)N3CC[C@H]3C(=O)N(CC)[C@@H](Cc3ccc(C)cc3)C(=O)N(C)CC(=O)N[C@@H](CCc3ccc(C(F)(F)F)c(Cl)c3)C(=O)N2C1` [Compound 525] (cyclo(A[Aze][NEtPhe(4-Me)][Sar][hPhe(3-Cl-4-CF3)][Hyp](Et)[Ac5c][NMeGly(cPent)][NMedβ3hAla][NMeL]I)): 2.3 nM; for `CC[C@H](C)[C@@H]1NC(=O)[C@H](CC(C)C)N(C)C(=O)C[C@@H](C(=O)N2CCCCC2)N(C)C(=O)[C@H](C2CCCCC2)N(C)C(=O)C2(CCCC2)NC(=O)[C@H](Cc2ccccc2)N(C)C(=O)[C@H](CCc2ccc(C(F)(F)F)c(Cl)c2)NC(=O)CN(C)C(=O)[C@H](CC2CCCCC2)N(C)C(=O)[C@@H]2CCN2C(=O)CN(C)C1=O` [Compound 527] ([NMeL]I[Sar][Aze][NMeCha][Sar][hPhe(3-Cl-4-CF3)][NMeF][Ac5c][NMeChg][NMeD]-Piperidide; lactam N-11): 38 nM.

In the case of `CC[C@H](C)[C@@H]1NC(=O)CCNC(=O)[C@H](Cc2ccc(F)cc2)N(C)C(=O)[C@H](C2CCCCC2)N(C)C(=O)C2(CCCC2)NC(=O)[C@@H]2CCCN2C(=O)[C@H](CCc2ccc(C(F)(F)F)c(Cl)c2)NC(=O)CN(C)C(=O)[C@H](CC2CCCCC2)N(C)C(=O)CN(C)C(=O)CN(C)C1=O` [Compound 528] (cyclo([Ac5c][NMeChg][NMePhe(4-F)][βAla]I[Sar][Sar][NMeCha][Sar][hPhe(3-Cl-4-CF3)]P)), the half-maximal inhibitory concentration (IC50) was 20 nM. Take `CC(C)C[C@H]1C(=O)N[C@@H](C2CC2)C(=O)N(C)CC(=O)N(C)CC(=O)N(C)[C@@H](CC2CCCCC2)C(=O)N(C)CC(=O)N[C@@H](CCc2ccc(C(F)(F)F)c(Cl)c2)C(=O)N2CCC[C@H]2C(=O)NC2(CCCC2)C(=O)N(C)[C@@H](C(C)C)C(=O)N(C)[C@H](C(=O)N2CCCCC2)CC(=O)N1C` [Compound 533] ([NMeL][Gly(cPr)][Sar][Sar][NMeCha][Sar][hPhe(3-Cl-4-CF3)]P[Ac5c][NMeV][NMeD]-Piperidide; lactam N-11): the IC50 was 8.5 nM. The same measure for `CC[C@H](C)[C@@H]1NC(=O)[C@H](C)N(C)C(=O)C[C@@H](C(=O)N2CCCC2)NC(=O)[C@H](CC(C)C)N(C)C(=O)[C@H](CC2CCCCC2)N(C)C(=O)[C@H](CC(C)C)NC(=O)[C@H](CCc2ccc(C(F)(F)F)cc2)NC(=O)CN(C)C(=O)[C@H](Cc2ccc(Cl)cc2)N(C)C(=O)CN(C)C(=O)CN(C)C1=O` [Compound 536] ([NMeA]I[Sar][Sar][NMePhe(4-Cl)][Sar][hPhe(4-CF3)]L[NMeCha][NMeL]D-Pyrrolidide; lactam N-11): 230 nM; for `CC(C)C[C@H]1C(=O)N[C@@H](CC2CCCCC2)C(=O)N(C)CC(=O)N(C)CC(=O)N(C)[C@@H](CC2CCCCC2)C(=O)N(C)CC(=O)N[C@@H](CCc2ccc(C(F)(F)F)c(Cl)c2)C(=O)N2CCC[C@H]2C(=O)NC2(CCCC2)C(=O)N(C)[C@@H](C(C)C)C(=O)N[C@H](C)CC(=O)N1C` [Compound 537] (cyclo([Ac5c][NMeV][d(β3hA)][NMeL][Cha][Sar][Sar][NMeCha][Sar][hPhe(3-Cl-4-CF3)]P)): 82 nM.

Values taken from patent publication US12371454B2, “Cyclic peptide compound having Kras inhibitory action” (priority 2019, dated 2025).
